Data on 20 molecules can be found in ChEMBL document CHEMBL4613212, “Insights of synthetic analogues of anti-leprosy agents” (Bioorg Med Chem, 2019).

Values after ≈ are worked out from the molar mass of the structure shown.

Data set [1] deals with Mycolicibacterium smegmatis. The data set can be described thus: Antimicrobial activity against Mycobacterium smegmatis ATCC 607. The class given is functional. The note with it: Mycolicibacterium smegmatis, ATCC 607; read-out: MIC.
Data set [2] relates to Mycolicibacterium smegmatis. Put plainly: Inhibition of Mycobacterium smegmatis ATCC 607 dihydrofolic reductase assessed as ratio of Km to Ki.
A short description of data set [3]: Inhibition of Mycobacterium smegmatis ATCC 607 dihydrofolic reductase. The arrangement: species or system Mycolicibacterium smegmatis.
The subject of another data set is Monocyte. Put plainly: Antiinflammatory activity in human monocytes assessed as inhibition of LPS-induced TNFaplha production at 50 uM preincubated for 15 mins followed by LPS addition and measured after 4 hrs by ELISA relative to control. The class given is functional.
A short description of data set [4]: Cytotoxicity against LPS-induced human monocytes assessed as cell viability at 50 uM by tryphan blue staining based assay relative to control. The arrangement: species or system Monocyte. The note with it: read-out: Activity.
Data set [5] concerns Escherichia coli. Put plainly: Antimicrobial activity against Escherichia coli ATCC 25922 by broth microdilution assay. The data set is classed as functional. (Broth dilution looks for growth in wells or tubes with falling amounts of substance.)
For data set [6], the system named is Enterococcus faecalis. The data set can be described thus: Antimicrobial activity against Enterococcus faecalis ATCC 29212 by broth microdilution assay. The class given is functional.
Data set [7] concerns Escherichia coli. Put plainly: Antimicrobial activity against Escherichia coli ATCC 35218 by broth microdilution assay. The class given is functional.
Data set [8] relates to Mycobacterium tuberculosis. The data set can be described thus: Antitubercular activity against Mycobacterium tuberculosis H37Rv ATCC 27294 incubated for 7 days by microplate alamar blue assay. The data set is classed as functional. The following applies: H37Rv ATCC 27294, 168 h. (Alamar Blue is a resazurin reagent that responds to reducing activity.)
Data set [9] concerns Enterococcus faecalis. The data set can be described thus: Antimicrobial activity against Enterococcus faecalis ATCC 51922 by broth microdilution assay. The class given is functional.
For another data set, the system named is Staphylococcus aureus. Put plainly: Antimicrobial activity against Staphylococcus aureus ATCC 25923 by broth microdilution assay. The class given is functional.
The subject of a further data set is Pseudomonas aeruginosa. The data set can be described thus: Antimicrobial activity against Pseudomonas aeruginosa ATCC 27853 by broth microdilution assay. The data set is classed as functional.
In a further data set the test system is Klebsiella pneumoniae. Put plainly: Antimicrobial activity against Klebsiella pneumoniae 700603 by broth microdilution assay. The data set is classed as functional.
The next data set has as its system Listeria monocytogenes. Put plainly: Antimicrobial activity against Listeria monocytogenes ATCC 1911 by broth microdilution assay. The data set is classed as functional.
A further data set relates to Mycolicibacterium vaccae. The data set can be described thus: Antimicrobial activity against Mycobacterium vaccae incubated for 24 hrs by broth microdilution assay. The data set is classed as functional.
For data set [10], the system named is Mycolicibacterium smegmatis. The data set can be described thus: Antimicrobial activity against Mycobacterium smegmatis incubated for 24 hrs by broth microdilution assay. The data set is classed as functional.
The test system of data set [11] is Mycolicibacterium fortuitum. The data set can be described thus: Antimicrobial activity against Mycobacterium fortuitum incubated for 24 hrs by broth microdilution assay. The data set is classed as functional.
A further data set relates to Mycolicibacterium aurum. Put plainly: Antimicrobial activity against Mycobacterium aurum incubated for 24 hrs by broth microdilution assay. The class given is functional.
Data set [12] relates to Mycolicibacterium smegmatis. Put plainly: Antimycobacterial activity against Mycobacterium smegmatis mc2 155 incubated for 2 days by spectrophotometric based assay. The data set is classed as functional. The note with it: MC2 155, 48 h.

Consider `CCc1nc(N)nc(N)c1-c1ccc(Cl)cc1` [PYRIMETHAMINE], for which, in [1], the MIC (commonly the lowest concentration that inhibits growth of the organism) came to 101 µM (≈ 25.1 µg/mL). For the same molecule, the Ratio in data set [2] stood at 0.8. Moreover, the affinity in data set [3] corresponds to a Ki of 75 nM.
With `Nc1ccc(F)c(F)c1`, the inhibition (in general, the percentage by which the read-out fell short of the control) at 50 µM in the data set with Monocyte is 19%. In addition, the viability at 50 µM in data set [4] was 99%.
Turning to `FC(F)(F)c1ccc(NC(=S)N/N=C/c2ccccc2)cc1`, the MIC against Escherichia coli [5] amounted to 400 µg/mL (≈ 1240 µM); against Enterococcus faecalis [6] it was 200 µg/mL (≈ 619 µM); against Escherichia coli [7] it was 400 µg/mL (≈ 1240 µM); in data set [8], 200 µg/mL (≈ 619 µM); against Enterococcus faecalis [9] it was 400 µg/mL (≈ 1240 µM); in the data set on Staphylococcus aureus it was 400 µg/mL (≈ 1240 µM). Besides, the minimal inhibitory concentration (MIC) in the data set on Pseudomonas aeruginosa, against Klebsiella pneumoniae and against Listeria monocytogenes was 400 µg/mL (≈ 1240 µM) each time.
With `Cc1ccc(/C=N/NC(=S)Nc2ccc(C(F)(F)F)cc2)cc1`, the MIC in the data set with Escherichia coli [5] amounted to 400 µg/mL (≈ 1190 µM); in the data set with Enterococcus faecalis [6] it was 400 µg/mL (≈ 1190 µM); against Escherichia coli [7], 800 µg/mL (≈ 2370 µM); in data set [8], 200 µg/mL (≈ 593 µM); in the data set with Enterococcus faecalis [9], 400 µg/mL (≈ 1190 µM); against Staphylococcus aureus, 400 µg/mL (≈ 1190 µM). The MIC with Pseudomonas aeruginosa amounted to 400 µg/mL (≈ 1190 µM); with Klebsiella pneumoniae, 400 µg/mL (≈ 1190 µM); in the data set on Listeria monocytogenes, 800 µg/mL (≈ 2370 µM).
On to `CN(C)c1ccc(/C=N/NC(=S)Nc2ccc(C(F)(F)F)cc2)cc1`, for which the MIC with Escherichia coli [5] was 400 µg/mL (≈ 1090 µM); with Enterococcus faecalis [6], 400 µg/mL (≈ 1090 µM); against Escherichia coli [7] it was 400 µg/mL (≈ 1090 µM); in [8], 200 µg/mL (≈ 546 µM); with Enterococcus faecalis [9] it was 400 µg/mL (≈ 1090 µM); against Staphylococcus aureus it was 400 µg/mL (≈ 1090 µM). Also, the MIC against Pseudomonas aeruginosa, in the data set on Klebsiella pneumoniae and in the data set with Listeria monocytogenes was 400 µg/mL (≈ 1090 µM) in each case.
Take `FC(F)(F)c1ccc(/C=N/NC(=S)Nc2ccc(C(F)(F)F)cc2)cc1`: the MIC with Escherichia coli [5] stood at 400 µg/mL (≈ 1020 µM); in the data set on Enterococcus faecalis [6], 100 µg/mL (≈ 256 µM); with Escherichia coli [7], 400 µg/mL (≈ 1020 µM); in data set [8] it was 200 µg/mL (≈ 511 µM); with Enterococcus faecalis [9], 400 µg/mL (≈ 1020 µM); against Staphylococcus aureus, 400 µg/mL (≈ 1020 µM). The MIC turned out to be 400 µg/mL (≈ 1020 µM) in the data set on Pseudomonas aeruginosa, 400 µg/mL (≈ 1020 µM) against Klebsiella pneumoniae and 800 µg/mL (≈ 2040 µM) against Listeria monocytogenes.
As to `COc1cc(CCc2cnc3nc(N)nc(N)c3n2)cc(OC)c1OC`, the MIC in data set [1] is above 281 µM. Moreover, the Ratio in [2] was found to be 2050. Further, in data set [3], affinity was put at a Ki of 18 nM.
On to `NC(=O)c1cc([N+](=O)[O-])cc([N+](=O)[O-])c1SC(=S)N1CCCC1`, for which the MIC against Mycolicibacterium vaccae is 0.4 µg/mL (≈ 1.12 µM); in data set [10], 50 µg/mL (≈ 140 µM); in data set [11], 6.25 µg/mL (≈ 17.5 µM); against Mycolicibacterium aurum, 6.25 µg/mL (≈ 17.5 µM).
For `FC(F)(F)c1ccc(NC(=S)N/N=C/c2ccc(Br)cc2)cc1`, the MIC in the data set on Escherichia coli [5] was determined as 400 µg/mL (≈ 994 µM); against Enterococcus faecalis [6], 400 µg/mL (≈ 994 µM); against Escherichia coli [7] it was 800 µg/mL (≈ 1990 µM); in [8], 400 µg/mL (≈ 994 µM); against Enterococcus faecalis [9], 400 µg/mL (≈ 994 µM); in the data set with Staphylococcus aureus, 400 µg/mL (≈ 994 µM). In addition, the MIC against Pseudomonas aeruginosa, in the data set with Klebsiella pneumoniae and against Listeria monocytogenes was 400 µg/mL (≈ 994 µM) each time.
In the case of `CCC1(N2C(=O)c3c(F)c(F)c(F)c(F)c3C2=O)C(=O)NC(=O)N(c2ccccc2)C1=O` (stereo not drawn), the inhibition at 50 µM in the data set on Monocyte is 16%. The viability at 50 µM in data set [4] was 68%.
Consider `Nc1nc(N)c2nc(Cc3ccc(Cl)c(Cl)c3)cnc2n1`, for which the MIC in [1] was above 311 µM. For the same molecule, the Ratio in [2] amounted to 58.5. In addition, in data set [3], the Ki (as a rule, a dissociation constant, usually derived from enzyme kinetics or from competition with a known ligand) is 2 nM.
As for `CC(C)Cc1cnc2nc(N)nc(N)c2n1`, in data set [1], the MIC amounted to 688 µM (≈ 150 µg/mL). Also, the Ratio in data set [2] amounted to 4560. For the same molecule, in [3], the Ki worked out at 0.9 nM.
Regarding `COc1ccc(/C=N/NC(=S)Nc2ccc(C(F)(F)F)cc2)cc1`, the MIC in the data set on Escherichia coli [5] came to 400 µg/mL (≈ 1130 µM); in the data set with Enterococcus faecalis [6], 400 µg/mL (≈ 1130 µM); in the data set with Escherichia coli [7], 800 µg/mL (≈ 2260 µM); in data set [8], 200 µg/mL (≈ 566 µM); in the data set on Enterococcus faecalis [9] it was 400 µg/mL (≈ 1130 µM); against Staphylococcus aureus, 400 µg/mL (≈ 1130 µM). The MIC amounted to 400 µg/mL (≈ 1130 µM) against Pseudomonas aeruginosa, 400 µg/mL (≈ 1130 µM) against Klebsiella pneumoniae and 800 µg/mL (≈ 2260 µM) against Listeria monocytogenes.
As to `Nc1nc(N)c2nc(CNc3ccc(C(=O)N[C@@H](CCC(=O)O)C(=O)O)cc3)cnc2n1` [AMINOPTERIN], the MIC in data set [1] was determined as 742 µM (≈ 327 µg/mL). In [2], the Ratio is 23100. This molecule also had a Ki in [3] of 0.18 nM.
Consider `O=C1c2ccccc2C(=O)N1c1ccc(S(=O)(=O)Nc2ccccn2)cn1`, for which, in [12], the MIC99 – broadly, an inhibitory concentration at the 99% level, which refers to growth in some studies and to a panel of isolates in others – worked out at 6100 µM (≈ 2320 µg/mL).
As to `COc1cc(Cc2cnc(N)nc2N)cc(OC)c1OC` [TRIMETHOPRIM], in [1], the MIC is 34 µM (≈ 9.87 µg/mL). The Ratio in data set [2] was 54.6. Further, the Ki in data set [3] stood at 70 nM.
Molecule `O=C1c2ccccc2C(=O)N1c1cnc(S(=O)(=O)Nc2ccccn2)cn1` returned an MIC99 in data set [12] of 3000 µM (≈ 1140 µg/mL).
Turning to `CN(Cc1cnc2nc(N)nc(N)c2n1)c1ccc(C(=O)N[C@@H](CCC(=O)O)C(=O)O)cc1` [METHOTREXATE], in [1], the MIC came to 2200 µM (≈ 1000 µg/mL). Further, the Ratio in data set [2] came out at 11700. The molecule also displayed a Ki in data set [3] of 0.35 nM.
With `CCCCCCCCC(COC1CCCC1)C(=O)O` (stereo not drawn), in [12], the MIC99 is 3600 µM (≈ 973 µg/mL).
On to `CCC1(N2C(=O)c3ccccc3C2=O)C(=O)NC(=O)N(C2CCCCC2)C1=O` (stereo not drawn), for which the inhibition at 50 µM in the data set on Monocyte was below 10%. For the same molecule, the viability at 50 µM in data set [4] stood at 87%.
